Data taken from patent US20070249670A1, “Glycogen Phosphorylase Inhibitor Compounds and Pharmaceutical Compositions Thereof” (SMITHKLINE BEECHAM CORPORATION, priority 2004, published 2007).

Target: T1, human liver glycogen phosphorylase a (HLGPa) (Homo sapiens, UniProt P06737)
T1 construct: creating a full-length cDNA fused at the 5′ end to codons for methionine-glycine-alanine-histidine; 6xHis tag (leader Met-Gly-Ala-His6-Gly-Gly) (N); made in house; host or cells: E. coli (bacterial expression plasmid pTXK1007LTev)
T1 sequence (P06737 2-847 limits assumed): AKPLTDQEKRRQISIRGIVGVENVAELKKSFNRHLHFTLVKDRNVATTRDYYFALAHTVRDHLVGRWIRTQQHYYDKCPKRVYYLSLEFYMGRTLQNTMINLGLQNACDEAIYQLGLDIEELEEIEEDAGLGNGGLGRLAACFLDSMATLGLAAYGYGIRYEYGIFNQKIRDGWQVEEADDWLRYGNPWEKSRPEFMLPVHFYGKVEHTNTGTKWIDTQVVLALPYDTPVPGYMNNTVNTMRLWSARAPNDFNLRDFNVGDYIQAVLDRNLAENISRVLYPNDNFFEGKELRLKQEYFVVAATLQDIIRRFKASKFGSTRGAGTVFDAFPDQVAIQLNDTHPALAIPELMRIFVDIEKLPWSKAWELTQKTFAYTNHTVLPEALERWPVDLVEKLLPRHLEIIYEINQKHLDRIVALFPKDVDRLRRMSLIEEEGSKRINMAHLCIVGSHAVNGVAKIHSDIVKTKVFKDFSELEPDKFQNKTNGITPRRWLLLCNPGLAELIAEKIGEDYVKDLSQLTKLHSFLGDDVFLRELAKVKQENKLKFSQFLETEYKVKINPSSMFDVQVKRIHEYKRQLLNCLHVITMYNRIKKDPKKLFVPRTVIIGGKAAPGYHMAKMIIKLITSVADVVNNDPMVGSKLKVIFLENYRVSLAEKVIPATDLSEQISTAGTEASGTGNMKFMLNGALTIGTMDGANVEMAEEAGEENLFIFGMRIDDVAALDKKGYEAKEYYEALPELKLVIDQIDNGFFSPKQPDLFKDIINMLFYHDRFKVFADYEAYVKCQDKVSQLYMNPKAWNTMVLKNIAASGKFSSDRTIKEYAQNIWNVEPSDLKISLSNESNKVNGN
Experiment: Human liver glycogen phosphorylase a enzymatic activity assay (coupled, fluorescent resorufin readout, with and without 10 mM glucose)
Type: biochemical
Conditions: human liver glycogen phosphorylase a; table does not say whether with or without 10 mM glucose

Structure (SMILES) | IC50
Cc1cccc(C)c1NC(=O)Nc1cc2ccccc2cc1C(=O)N1CCC[C@H]1C(=O)O [Example 334, 1-{[3-({[(2,6-dimethylphenyl)amino]carbonyl}amino)-2-naphthalenyl]carbonyl}-L-proline] | 420 nM
Cc1cc(C)c(NC(=O)Nc2cc3ccccc3cc2C(=O)N[C@H](CC(=O)O)c2ccccc2)c(C)c1 [Example 336, (3R)-3-phenyl-3-({[3-({[(2,4,6-trimethylphenyl)amino]carbonyl}amino)-2-naphthalenyl]carbonyl}amino)propanoic acid] | 610 nM
Cc1cc(C)c(NC(=O)Nc2cc3ccccc3cc2C(=O)N[C@H](CC(=O)OC(C)(C)C)C2CCCCC2)c(C)c1 [Example 337, 1,1-dimethylethyl (3R)-3-cyclohexyl-3-({[3-({[(2,4,6-trimethylphenyl)amino]carbonyl}amino)-2-naphthalenyl]carbonyl}amino)propanoate] | 5260 nM
Cc1cc(C)c(NC(=O)Nc2cc3ccccc3cc2C(=O)N[C@H](CC(=O)O)C2CCCCC2)c(C)c1 [Example 338, (3R)-3-cyclohexyl-3-({[3-({[(2,4,6-trimethylphenyl)amino]carbonyl}amino)-2-naphthalenyl]carbonyl}amino)propanoic acid] | 2130 nM
Cc1cc(C)c(NC(=O)Nc2cc3ccccc3cc2C(=O)N[C@H](CC(=O)O)C(C)C)c(C)c1 [Example 339, (3R)-4-methyl-3-({[3-({[(2,4,6-trimethylphenyl)amino]carbonyl}amino)-2-naphthalenyl]carbonyl}amino)pentanoic acid] | 1560 nM
Cc1cc(C)c(NC(=O)Nc2cc3ccccc3cc2C(=O)N[C@H](c2nnn[nH]2)C(C)C)c(C)c1 [Example 340, N-[(1S)-2-methyl-1-(1H-tetrazol-5-yl)propyl]-3-({[(2,4,6-trimethylphenyl)amino]carbonyl}amino)-2-naphthalenecarboxamide] | 340 nM
Cc1cc(C)c(NC(=O)Nc2cc3ccccc3cc2C(=O)N[C@H](C#N)C2CCC(F)(F)CC2)c(C)c1 [Example 342, N—[(S)-cyano(4,4-difluorocyclohexyl)methyl]-3-({[(2,4,6-trimethylphenyl)amino]carbonyl}amino)-2-naphthalenecarboxamide] | 8600 nM
O=C(Nc1cc2ccccc2cc1C(=O)N[C@H](C(=O)O)C1CCCC1)Nc1c(Cl)cc(Cl)cc1Cl [Example 343, (2S)-cyclopentyl({[3-({[(2,4,6-trichlorophenyl)amino]carbonyl}amino)-2-naphthalenyl]carbonyl}amino)ethanoic acid] | 130 nM
Cc1cc(C)c(NC(=O)Nc2cc3ccccc3cc2C(=O)N[C@@H](CC(=O)OC(C)(C)C)C(=O)OC(C)(C)C)c(C)c1 [Example 353, bis(1,1-dimethylethyl) N-{[3-({[(2,4,6-trimethylphenyl)amino]carbonyl}amino)-2-naphthalenyl]carbonyl}-L-aspartate] | 5080 nM
Cc1cc(C)c(NC(=O)Nc2cc3ccccc3cc2C(=O)N[C@@H](CC(=O)O)C(=O)O)c(C)c1 [Example 354, N-{[3-({[(2,4,6-trimethylphenyl)amino]carbonyl}amino)-2-naphthalenyl]carbonyl}-L-aspartic acid] | 61 nM
O=C(O)C[C@H](NC(=O)c1cc2ccccc2cc1NC(=O)Nc1c(Cl)cc(OC(F)(F)F)cc1Cl)C(=O)O [Example 355, N-[(3-{[({2,6-dichloro-4-[(trifluoromethyl)oxy]phenyl}amino)carbonyl]amino}-2-naphthalenyl)carbonyl]-L-aspartic acid] | 14 nM
Cc1cc(C)c(NC(=O)Nc2cc3ccccc3cc2C(=O)N[C@H](CC(=O)O)C(=O)O)c(C)c1 [Example 356, N-{[3-({[(2,4,6-trimethylphenyl)amino]carbonyl}amino)-2-naphthalenyl]carbonyl}-D-aspartic acid] | 100 nM
Cc1cc(C)c(NC(=O)Nc2cc3ccccc3cc2C(=O)N2CCC[C@@H]2C(=O)O)c(C)c1 [Example 357, 1-{[3-({[(2,4,6-trimethylphenyl)amino]carbonyl}amino)-2-naphthalenyl]carbonyl}-D-proline] | 2470 nM
